Results published in patent US8022040B2, “Hydroxyapatite-binding peptides for bone growth and inhibition” (The Regents of the University of California, priority 2004, dated 2011).
Where two headings read alike, the source gives them in different places. Positions of bridges follow the written chain, without caps; N, C: chain ends. No end group written: not given here.

Legend:
[1] = for HA nucleation templated by peptide deposited from cosolvent: 1.5 mg/ml in acetonitrile and water (1:1/v:v), dried on grid, soaked in mineral precursor solutions; for HA nucleation templated by peptide solution in 100% water: compared to peptides 1 and 2
Protocol: (CaCl2 (10 mM)+Na2HPO4 (5 mM)→Ca10(OH)2(PO4)6). The inset photographs show the X-ray diffraction patterns of the crystals at each timepoint.
In order to investigate the nucleation ability of these binding peptides, the major 12-mer linear binding peptide was synthesized by solid phase synthetic method and subjected to HA-mineralization on holey carbon film-coated TEM grids according to J. D. Hartgerink, E. Beniash, S. I. Stupp, Science, 294, 1684 (2001), which is hereby incorporated by reference.
In order to study kinetics of HA nucleation by this peptide suspension, time dependence nucleation was investigated by preparing parallel TEM samples where HA was nucleated for 30 min (FIG. 20, Panel C), 1 hr (FIG. 20, Panel D), and 2 hrs (FIG. 20, Panel E) by same concentration peptide suspension.

[2] = Phage titering assay counting phage eluted from HA; assay type: binding; details: FIG. 12 Panel B; comparing to the wild type viruses / the other three peptides; TBST (0.5%) wash, glycine-HCl elution
Protocol: (§1) Single crystalline and polycrystalline HA were freshly etched to remove carbonated contaminates and incubated with 1×10^10 pfu of phage of W4a-4-14 (Single 14), W4a-4-15 (single 15), HA-4-3 (poly 3), wild type (wild) phages suspension for these assays.
(§2) As described in Example 1, 4 mg of single crystalline HA was freshly etched to remove carbonated contaminates and incubated with 1×10^10 pfu of phage of constrained W4a-4-14 (Single 14), W4a-4-15 (single 15), HA-4-3 (poly 3), wild type (wild) phages suspension. After washing off with TBST (0.5%) ten times, the bound phage was eluted using glycine-HCl […] and titered to count number of bound phage.

[3] = Flow cytometric measurement of fluorescence intensity of binding viruses on HA surfaces
Protocol: as §1, §2
After 30 minutes incubation of 4 mg/ml of HA crystals with ˜10^10 pfu/ml of each phage, CLP7, CLP12, or the wild type phages, the HA crystals were washed ten times with Tris-buffered saline solution (pH 7.5) contained 0.5% Tween 20. The phage bound to HA surfaces was labeled by R-phycoerythrin-conjugated monoclonal pVIII antibody (Amersham Pharmacia Biotech, UK), and the fluorescence images were acquired (Nikon fluorescence microscope, Japan) and the fluorescence intensity was quantified by FACS Calibur flow cytometer (BD Biosciences, Calif.).

[4] = 1.5 mg/ml peptide, two hours mineralization, 5 mM Na2HPO4 + 10 mM CaCl2

Substance	HA nucleation templated by peptide deposited from cosolvent [1]	HA nucleation templated by peptide solution in 100% water [1]	HA deposition templated by peptide (TEM/SAED) [1, 4]	also measured
APYHPTIPASVH-GGGK-biotin [peptide 5]	nucleation phenomena similar to those templated by HA binding peptides	relatively bigger amorphous calcium phosphate aggregation	–	–
Cys Asn Tyr Pro Thr Leu Lys Ser Cys (CNYPTLKSC; disulfide 1-9 (inferred); also: displayed on M13 phage) [single 14]	–	–	–	strength of HA binding relative to comparators [2]: almost three times stronger; binding to HA surfaces, rank among viruses tested ([3]; phage-displayed peptides single 14, single 15, poly 3 and wild type): bind best to HA surfaces among all viruses tested
NIYHPTPPQSVH-GGGK-biotin [control peptide 1]	–	–	amorphous calcium phosphate deposition without any clear SAED patterns	–
NPDHPDIPQDVH-GGGK-biotin [Control peptide 2]	–	–	amorphous deposition of calcium phosphate without any clear diffraction patterns	–
NPYAPTIPQSVA-GGGK-biotin [peptide 4]	nucleation phenomena similar to those templated by HA binding peptides	relatively bigger amorphous calcium phosphate aggregation	–	–
NPYHPTIPQSVH [Single 15]	–	–	–	improved binding affinity (fluorescence intensity of binding viruses on HA surfaces) ([3]; flow cytometry, FIG. 12 Panel A, phage-displayed peptide compared to wild type phage, 1×10^10 pfu): around 50%
NPYHPTIPQSVH-GGGK-biotin [peptide 3]	nucleation phenomena similar to those templated by HA binding peptides	reduced HA-nucleation ability with different morphology of HA crystals	–	–
NPYHPTIPQSVH-GGGK-biotin [single 15-biotin]	–	–	well crystallized HA deposition	HA deposition templated by peptide (TEM/SAED) ([1]; 15 mg/ml peptide, two hours, same amount of CaCl2 and Na2HPO4): well-crystallized HA crystals; HA nucleation, time dependence (TEM/SAED) ([1]; 30 min): amorphous deposition of calcium phosphate; HA nucleation, time dependence (TEM/SAED) ([1]; after 2 hours): fully developed HA crystals were nucleated
